Measurements from patent publication US10947252B2, “Inhibitors of KEAP1-Nrf2 protein-protein interaction” (Janssen Pharmaceutica NV, priority 2018, dated 2021).
Counter-ions that a name gives are not always drawn.

Columns and labels:
[1] = target: Kelch domain of human KEAP1 (321-624 aa) (Homo sapiens (Human), UniProt Q14145); experiment: KEAP1 KELCH ThermoFluor binding assay; conditions: KEAP Kelch […], 1,8-ANS, pH 7.0, average of results obtained, read-out: Tf Kd;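 further: Ligand-induced melting temperature shift of E. coli-expressed KEAP1 Kelch protein, Kd estimated from concentration-response curves of ΔTm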
[2] = system: Glo-Response ARE-luc2P HEK293 cell line; experiment: ARE luciferase reporter cell-based assay; conditions: Homo sapiens, HEK293, 24 h, average of results obtained;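 further: luciferase signal tracks Nrf2 activation of the ARE once compounds disrupt KEAP1-Nrf2 binding, read with One-Glo reagent, DMSO serving as low control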

Chain of Kelch domain of human KEAP1 (321-624 aa) (Q14145 321-624): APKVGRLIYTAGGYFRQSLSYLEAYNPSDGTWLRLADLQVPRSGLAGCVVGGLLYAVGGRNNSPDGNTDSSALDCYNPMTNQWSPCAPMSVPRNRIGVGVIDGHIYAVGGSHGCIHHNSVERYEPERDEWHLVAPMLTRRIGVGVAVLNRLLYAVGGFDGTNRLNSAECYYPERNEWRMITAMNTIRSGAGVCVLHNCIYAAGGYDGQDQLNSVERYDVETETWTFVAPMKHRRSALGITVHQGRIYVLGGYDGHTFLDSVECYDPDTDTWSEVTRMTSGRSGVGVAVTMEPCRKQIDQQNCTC

Structure (SMILES) | Kd [1] [nM] | EC50 [2] [nM]
Cc1ccc([C@@H](CC(=O)O)c2ccn3c(C(F)(F)F)nnc3c2C)nc1CN1CC2(COC2)Oc2ccccc2S1(=O)=O (single isomer, unassigned) [Example 485, (*S)-3-(6-((1,1-dioxidospiro[benzo[b][1,4,5]oxathiazepine-4,3′-oxetan]-2(3H)-yl)methyl)-5-methylpyridin-2-yl)-3-(8-methyl-3-(trifluoromethyl)-[1,2,4]triazolo[4,3-a]pyridin-7-yl)propanoic Acid] | < 1 | 156
Cc1ccc(C(CC(=O)O)c2cc(OC(F)F)c3c(c2)nnn3C)cc1CN1C[C@H]2CCCN2c2ncccc2S1(=O)=O (mixture of isomers) [Example 246, 3-(7-(Difluoromethoxy)-1-methyl-1H-benzo[d][1,2,3]triazol-5-yl)-3-(3-(((R)-5,5-dioxido-7a,8,9,10-tetrahydropyrido[2,3-f]pyrrolo[2,1-d][1,2,5]thiadiazepin-6(7H)-yl)methyl)-4-methylphenyl)propanoic Acid and its Trifluoroacetic Acid Salt] | < 1 | 87.3
Cc1ccc([C@H](CC(=O)O)c2ccn3c(C(F)(F)F)nnc3c2C)cc1CN1CC2CCCCN2c2ncc(C#N)cc2S1(=O)=O (stereo in doubt) [Example 312, (*S)-3-(3-((3-Cyano-5,5-dioxido-7,7a,8,9,10,11-hexahydro-6H-dipyrido[2,1-d:2′,3′-f][1,2,5]thiadiazepin-6-yl)methyl)-4-methylphenyl)-3-(8-methyl-3-(trifluoromethyl)-[1,2,4]triazolo[4,3-a]pyridin-7-yl)propanoic Acid] | < 1 | 13.1
Cc1ccc([C@H](CC(=O)O)c2ccn3c(C(F)(F)F)nnc3c2C)nc1CN1C[C@@H]2CCCCN2c2ncccc2S1(=O)=O (single isomer, unassigned) [Example 480, (*R)-3-(6-(((*S)-5,5-Dioxido-7,7a,8,9,10,11-hexahydro-6H-dipyrido[2,1-d:2′,3′-f][1,2,5]thiadiazepin-6-yl)methyl)-5-methylpyridin-2-yl)-3-(8-methyl-3-(trifluoromethyl)-[1,2,4]triazolo[4,3-a]pyridin-7-yl)propanoic Acid] | < 1 | 252
Cc1ccc([C@@H](CC(=O)O)c2ccn3c(C)nnc3c2)cc1CN1C[C@H]2CCCN2c2ccccc2S1(=O)=O (single isomer, unassigned) [Example 166, (*R)-3-(3-(((R)-5,5-Dioxido-7a,8,9,10-tetrahydrobenzo[f]pyrrolo[2,1-d][1,2,5]thiadiazepin-6(7H)-yl)methyl)-4-methylphenyl)-3-(3-methyl-[1,2,4]triazolo[4,3-a]pyridin-7-yl)propanoic Acid] | < 1 | 7020
Cc1ccc([C@H](CC(=O)O)c2ccn3c(C(F)(F)F)nnc3c2C)cc1CN1C[C@@H]2CCCCN2c2ncc(Cl)cc2S1(=O)=O (single isomer, unassigned) [Example 192, (*S)-3-(3-(((*S)-3-Chloro-5,5-dioxido-7,7a,8,9,10,11-hexahydro-6H-dipyrido[2,1-d:2′,3′-f][1,2,5]thiadiazepin-6-yl)methyl)-4-methylphenyl)-3-(8-methyl-3-(trifluoromethyl)-[1,2,4]triazolo[4,3-a]pyridin-7-yl)propanoic Acid] | < 1 | 1.4
Cc1ccc([C@H](CC(=O)O)c2ccn3c(C(F)(F)F)nnc3c2C)cc1CN1CC2(CC2)Oc2ncc(F)cc2S1(=O)=O (single isomer, unassigned) [Example 311, (*S)-3-(3-((8′-Fluoro-1′,1′-dioxidospiro[cyclopropane-1,4′-pyrido[2,3-b][1,4,5]oxathiazepin]-2′(3′H)-yl)methyl)-4-methylphenyl)-3-(8-methyl-3-(trifluoromethyl)-[1,2,4]triazolo[4,3-a]pyridin-7-yl)propanoic Acid] | < 1 | 9.3
CCn1nnc2c(C)c([C@@H](CC(=O)O)c3ccc(C)c(CN4C[C@H]5CCCN5c5ncccc5S4(=O)=O)n3)ccc21 (single isomer, unassigned) [Example 298, (*R)-3-(6-(((R)-5,5-Dioxido-7a,8,9,10-tetrahydropyrido[2,3-f]pyrrolo[2,1-d][1,2,5]thiadiazepin-6(7H)-yl)methyl)-5-methylpyridin-2-yl)-3-(1-ethyl-4-methyl-1H-benzo[d][1,2,3]triazol-5-yl)propanoic Acid] | < 1 | 21.5
Cc1ccc([C@@H](CC(=O)O)c2ccn3c(C(F)(F)F)nnc3c2C)cc1CN1CC2(CC2)Oc2ncccc2S1(=O)=O (single isomer, unassigned) [Example 8, (*R)-3-(3-((1′,1′-dioxidospiro[cyclopropane-1,4′-pyrido[2,3-b][1,4,5]oxathiazepin]-2′(3′H)-yl)methyl)-4-methylphenyl)-3-(8-methyl-3-(trifluoromethyl)-[1,2,4]triazolo[4,3-a]pyridin-7-yl)propanoic Acid] | 0.188 | 660
Cc1cnc2c(c1)S(=O)(=O)N(Cc1cc([C@H](c3ccn4c(C(F)(F)F)nnc4c3C)C(C)(C)C(=O)O)cnc1C)CC1(CC1)O2 (single isomer, unassigned) [Example 573, (*S)-2,2-Dimethyl-3-(8-methyl-3-(trifluoromethyl)-[1,2,4]triazolo[4,3-a]pyridin-7-yl)-3-(6-methyl-5-((8′-methyl-1′,1′-dioxidospiro[cyclopropane-1,4′-pyrido[2,3-b][1,4,5]oxathiazepin]-2′(3′H)-yl)methyl)pyridin-3-yl)propanoic Acid] | < 1 | 
Cc1cnc2c(c1)S(=O)(=O)N(Cc1cc(C(c3ccn4c(C(F)(F)F)nnc4c3C)C(C)(C)C(=O)O)cnc1C)CC1(CC1)O2 (single isomer, unassigned) [Example 574, (*R)-2,2-Dimethyl-3-(8-methyl-3-(trifluoromethyl)-[1,2,4]triazolo[4,3-a]pyridin-7-yl)-3-(6-methyl-5-((8′-methyl-1′,1′-dioxidospiro[cyclopropane-1,4′-pyrido[2,3-b][1,4,5]oxathiazepin]-2′(3′H)-yl)methyl)pyridin-3-yl)propanoic Acid] | 6750 | 
Cc1ccc([C@@H](c2ccc3c(nnn3C3CC3)c2C)C(C)(C)C(=O)O)cc1CN1CC2(CC2)Oc2nc(N[C@@H](C)CN3CCCCC3)c(C)cc2S1(=O)=O (single isomer, unassigned) [Example 659, (*S)-3-(1-Cyclopropyl-4-methyl-1H-benzo[d][1,2,3]triazol-5-yl)-2,2-dimethyl-3-(4-methyl-3-((8′-methyl-1′,1′-dioxido-7′-(((S)-1-(piperidin-1-yl)propan-2-yl)amino)spiro[cyclopropane-1,4′-pyrido[2,3-b][1,4,5]oxathiazepin]-2′(3′H)-yl)methyl)phenyl)propanoic Acid] | < 1 | 
Cc1ccc([C@@H](c2ccn3c(C(F)(F)F)nnc3c2C)C(C)(C)C(=O)O)cc1CN1CC2(CC2)Oc2nc(OCCN3CCC(F)CC3)c(C)cc2S1(=O)=O (single isomer, unassigned) [Example 661, (*S)-3-(3-((7′-(2-(4-fluoropiperidin-1-yl)ethoxy)-8′-methyl-1′,1′-dioxidospiro[cyclopropane-1,4′-pyrido[2,3-b][1,4,5]oxathiazepin]-2′(3′H)-yl)methyl)-4-methylphenyl)-2,2-dimethyl-3-(8-methyl-3-(trifluoromethyl)-[1,2,4]triazolo[4,3-a]pyridine-7-yl)propanoic Acid] | < 1 | 
